This test can be described thus: Inhibition of VEGF-stimulated VEGFR2 autophosphorylation in HUVEC cells […] relative to control.

Compound `CO/N=C(\C)c1ccc2c(c1)c1c3c(c4c(c1n2CC(C)C)CCc1nn(C)cc1-4)C(=O)NC3` [7-[(1E)-1-(methoxyimino)ethyl]-19-methyl-3-(2-methylpropyl)-3,13,19,20-tetraazahexacyclo[14.7.0.0^{2,10}.0^{4,9}.0^{11,15}.0^{17,21}]tricosa-1(16),2(10),4,6,8,11(15),17,20-octaen-14-one] displayed a concentration for half-maximal inhibition (IC50) of 4 nM.

As usually defined, the IC50 is the midpoint of a concentration-inhibition curve. Higher therefore signals weaker potency.
